These results are taken from US20070161691A1, “Modified-protein formation inhibitor” (TOKAI UNIVERSITY, priority 2003, published 2007).

For series [1], the system named is pentosidine formation. The series is described as follows: AGEs (pentosidine) formation inhibiting effect in plasma from dialysis patients. To be noted: for Pentosidine formation: 5 mM; for pentosidine formation suppression: plasma from the patients with dialysis. Type of series: biochemical, human. The procedure: Before dialysis, blood samples were obtained from non-diabetic volunteer dialysis patients with renal failure, and fresh heparinized plasma samples were prepared therefrom Pooled plasma obtained from several patients (n=3˜5) was served to the test. 4-(5-phenyltetrazol-1-ylmethyl)-morpholine (Compound 1), 5-methyl-1-(5-phenyltetrazol-1-ylmethyl)-3a,6a-dihydro-1H-pyrrolo[3,4-d][1,2,3]triazole-4,6-dione (Compound 2) or (5-phenyltetrazol-1-yl)methanol (Compound 3) adjusted to a designed concentration ([…]), in DMSO solution (100 μl), was added to the pooled plasma (900 μl) and incubated at 37° C. for 7 days in the presence of air. Then, the amount of pentosidine was measured to estimate the suppressive effect on the glycation of protein.
Measurement of the amount of pentosidine was made as follows: to each incubated sample (50 μL) was added an equal volume of 10% trichloroacetic acid, followed by centrifugation at 5000 g for 5 minutes; after removal of the supernatant, the pellet was washed by 5% trichloroacetic acid (300 μL); the pellet was dried under reduced pressure and then subjected to hydrolysis in 6N HCI solution (100 μL) at 110° C. under nitrogen atmosphere for 16 hours; to the hydrolysate, 5N NaOH (100 μL) and 0.5 M phosphate buffer (pH 7.4) (200 μL) were added, followed by filtration through a porefilter with a pore size of 0.5 μm and dilution with PBS. The concentration of free pentosidine was determined by reversed-phase HPLC using a fluorescence detector (RF-10A, Shimazu Seisakusho) (Miyata, T. et al.: Proc. Natl. Acad. Sci. USA, 93, 2353-2358, 1996). The effluent was monitored at 335/385 nm of excitation/emission wavelength. Synthetic pentosidine was used as the standard. The detection limit of pentosidine was 0.1 pmol/mg protein.
The inhibiting effect was estimated by comparing with positive control (aminoguanidine and pyridoxamine (Sigma)) reacted in the same manner as 4-(5-phenyltetrazol-1-yl-methyl)-morpholine (Compound 1), 5-methyl-1-(5-phenyltetrazol-1-ylmethyl)-3a,6a-dihydro-1H-pyrrolo[3,4-d][1,2,3]triazole-4,6-dione (Compound 2) and (5-phenyltetrazol-1-yl)methanol (Compound 3).

Series [2] in a line: Suppressive effect on the hydroxylation of phenylalanine with hydroxy radical. To be noted: in comparison with pyridoxamine as positive control; 0.1, 0.5, 2.5 mM. Type of series: biochemical. The procedure: Phenylalanine (final concentration: 1 mM), test compound (final concentration: 0.1, 0.5, 2.5 mM), hydrogen peroxide (final concentration: 5 mM) and cupric sulfate (final concentration: 0.1 mM) were dissolved in 200 mM of phosphate buffer (pH7.4) (total volume 500 μL), followed by incubation at 37° C. for 4 hours. Then, DTPA (final concent-ration: 1 mM) and 260 unit of catalase were added thereto to interrupt the reaction. The amounts of o-tyrosine and m-tyrosine formed were determined by HPLC in the following manner: after a designed period of time, the reaction mixture was diluted to 100 folds; 20 μL of the dilution was injected onto HPLC, separation was made with C18 column (4.6×250 mm, 5 μm; Nomura Kagaku) and detection was effected using a fluorescence detector (RF-10A: Shimazu Seisakusho) under the condition of an excitation wavelength of 275 nm and a fluorescence wavelength of 305 nm. In the mobile phase, the flow rate was 0.6mL/min and the concentration of buffer B was varied from 6.5% to 10% in 25 minutes (buffer A: 0.10% trifluoroacetic acid; buffer B: 80% acetonitrile containing 0.08% trifluoroacetic acid).

A short description of series [3]: Vitamin B6 (PLP; pyridoxal phosphate) trapping. Type of series: biochemical. The conditions noted are these: 500 μM compound, 50 μM PLP, PBS. As to the method: To a solution of vitamin B6, the compound of this invention is added, and after a certain period of time, an amount of vitamin B6 remained is determined.
4-(5-phenyltetrazol-1-ylmethyl)-morpholine (Compound 1), 5-methyl-1-(5-phenyltetrazol-1-ylmethyl)-3a,6a-dihydro-1H-pyrrolo[3,4-d][1,2,3]triazol-4,6-dione (Compound 2) and (5-phenyltetrazol-1-yl)methanol (Compound 3) as well as aminoguanidine as the positive control were each dissolved in DMSO in a designed concentration to make a sample solution. DMSO itself was used as the negative control. In addition, pyridoxal phosphate (PLP) was dissolved in purified-water to make a designed concentration. PBS was added to each of the test compound, the positive control and the negative control, to make a final concentration of 500 μM. The PLP solution as above prepared was added to each of the resultant solution to make a final concentration of 50 μM for preparation of the PLP reaction solution. Using HPLC, the amount of PLP in the PLP reaction solution was determined after 0.1 and 10 hours, from which the PLP trapping amount of each test compound was ascertained.
The analysis of PLP using HPLC was carried out by separation with reverse-phase C18 column (4.6×250 mm, 5 μm; Waters) and by using a fluorescence detector (RF-10A; Shimazu Seisakusho; excitation wavelength, 300 nm and fluorescence wavelength, 400 nm). In the mobile phase, the flow rate was 0.6 mL/min and the concentration of buffer B was varied from 0% to 3% in 25 minutes (buffer A: 0.10% trifluoroacetic acid; buffer B: 80% acetonitrile containing 0.08% trifluoroacetic acid).

Series [4] is described as follows: Suppressing effect on the nitration of tyrosine with peroxynitrite. The conditions noted are these: in comparison with pyridoxamine as positive control; 0.1, 0.5, 2.5 and 5 mM. Type of series: biochemical. As to the method:
According to the method of Pannala, A.S. et al. (Free Radic. Biol. Med., 24:594-606, 1998), the examination was carried out. Namely, tyrosine (final concentration: 100 μM), the test compound (final concentration: 0.1, 0.5, 2.5 and 5 mM) and peroxynitrite (Dojin Kagaku) (final concentration: 500 μM) were dissolved in 200 mM of phosphate buffer (pH7.4) (liquid volume 500 μL) and incubated at 37° C. for 15 minutes. After incubation, the nitrotyrosine formation was determined with HPLC in the following manner: after a predifined time, the reaction mixture (20 μL) was injected onto HPLC, separation was made with C18 column (4.6×250 mm, 5 μm: Waters) and the detection was effected using a ultraviolet detector (RF-10A: Shimazu Seisakusho) at a wavelength of 280 nm. In the mobile phase, the flow rate was 0.6 mL/min and the concentration of buffer B was varied from 5.0% to 30% in 30 minutes (buffer A: 0.10% trifluoroacetic acid; buffer B: 80% acetonitrile containing 0.08% trifluoroacetic acid). 4-Hydroxy-3-nitrobenzoic acid (100 μM) was used as the internal standard.

Series [5] in a line: Acute toxicity examination, single oral administration to mouse. The conditions noted are these: male, in vivo, ICR mice, single oral administration. As to the method:
(§1) For 4-(5-phenyltetrazol-1-ylmethyl)-morpholine (compound 1) and (5-phenyltetrazol-1-yl) methanol (compound 3), acute toxicity test was carried out using mice. Each compounds were suspended in carboxymethyl cellulose in given concentration to prepare sample for oral administration. Then single oral administration was done to mouse. The dose is 100, 250, 500, 1000 and 2000 mg/kg. Five ICR mice (male , 8 weeks aged, closed colony) were used in each group. The test material was administrated to determine LD50 value.

In series [6] the test system is ICR mice. The description is as above. To be noted: in vivo, po. The procedure: as §1
Series [7] is described as follows: Absorbability examination, oral administration to rat. To be noted: 50 mg/kg oral. The class given is in vivo. As to the method:
For 4-(5-phenyltetrazol-1-yl methyl)-morpholine (compound 1) and (5-phenyltetrazol-1-yl)methanol (compound 3), their sorbability were examined. Each compounds are suspended in carboxymethyl cellulose in given concentration to prepare sample for oral administration. Then each samples were administered in the ratio of 50 mg/kg to rat using sonde. Five Wister rats (male, 8 weeks aged, closed colony) were used every one group. At one hour, 2 hours, 6 hours and 24 hours after the administration of compound, blood was obtained. The obtained blood samples were immediately cetrifuged at 3000 rpm for 15 minutes to obtain the blood plasma and the concentration of the compound in the specimen was quantitated by HPLC. Briefly, to 100 μL of obtained blood plasma was added to 200 μL of acetonitrile, centrifuged at 12000 rpm for 10 minutes to obtain supernatant, deproteinized and served to HPLC. The measuring condition of HPLC was selected from suitable condition for each compounds to separate and quantify. For example, in case of 4-(5-phenyltetrazol-1-yl methyl)-morpholine (compound 1), separated with reverse-phase C18 column (4.6×250 mm, 5 μm: Waters), and then detected using ultraviolet detector (RF-10A: Shimazu Seisakusho) at 240 nm of wavelength to quantify. In mobile phase, the flow rate is 0.8 mL/min and solvent is water: acetonitrile.

Setting [8] is: plasma from dialysis patients, 37° C., 7 days, DMSO negative control 2.960.

In series [1] (same manner as Table 2), `c1ccc(-c2nnnn2CN2CCNCC2)cc1` [Compound 4, 1-(5-phenyltetrazol-1-ylmethyl)-piperazine] returned a Pentosidine formation of 0.234 nmol/mL. Further, in series [1], the “pentosidine formation suppression” value is “suppressed remarkably”.

On to `Cc1ncc(CO)c(CN)c1O` [Pyridoxamine, pyridoxamine, reference compound], for which, in series [1] (setting [8]), the “Pentosidine formation” value is given as 2.280 nmol/mL.

For `CN1C(=O)C2N=NN(Cn3nnnc3-c3ccccc3)C2C1=O` (stereo not drawn) [Compound 2, 5-methyl-1-(5-phenyltetrazol-1-ylmethyl)-3a,6a-dihydro-1H-pyrrolo[3,4-d][1,2,3]triazole-4,6-dione], the “hydroxylation of phenylalanine with hydroxy radical, suppression” value in series [2] is “suppressed remarkably”. Also, in series [1] (setting [8]), the “Pentosidine formation” value is recorded as 0.320 nmol/mL. For the same molecule, the “pentosidine formation suppression” value in series [1] is listed as “suppressed remarkably”. In addition, the PLP trapping entry in series [3] was “none”. Besides, in series [4], the “nitrotyrosine formation, suppression” value is listed as “suppressed remarkably”.

Regarding `c1ccc(-c2nnnn2CN2CCN(Cn3nnnc3-c3ccccc3)CC2)cc1` [Compound 7, 1,4-bis-(5-phenyltetrazol-1-ylmethyl)-piperazine], the Pentosidine formation in series [1] (same manner as Table 2) stood at 0.103 nmol/mL. In series [1], the “pentosidine formation suppression” value was “suppressed remarkably”.

For `CN1CCN(Cn2nnnc2-c2ccccc2)CC1` [Compound 5, 1-methyl-4-(5-phenyltetrazol-1-ylmethyl)-piperazine], the Pentosidine formation in series [1] (same manner as Table 2) is 0.201 nmol/mL. For the same molecule, the “pentosidine formation suppression” value in series [1] is on record as “suppressed remarkably”.

In series [1] (same manner as Table 2), `c1ccc(-c2nnnn2CN2CCSCC2)cc1` [Compound 6, 4-(5-phenyltetrazol-1-ylmethyl)-thiomorpholine] came in with a Pentosidine formation of 0.149 nmol/mL. Moreover, in series [1], the “pentosidine formation suppression” value was “suppressed remarkably”.

With `OCn1nnnc1-c1ccccc1` [Compound 3, (5-phenyltetrazol-1-yl)-methanol], the “hydroxylation of phenylalanine with hydroxy radical, suppression” value in series [2] is on record as “suppressed remarkably”. For the same molecule, in series [5], the LD50 was above 2000 mg/kg. For the same molecule, the “toxicity” value in series [6] is “lower toxicity”. In addition, the “Pentosidine formation” value in series [1] (setting [8]) amounted to 0.026 nmol/mL. The “pentosidine formation suppression” value in series [1] is given as “suppressed remarkably”. Further, in series [3], the PLP trapping result is listed as “none”. In addition, the “sorbability (plasma concentration after oral administration)” value in series [7] is recorded as “good sorbability”. Besides, in series [4], the “nitrotyrosine formation, suppression” value is reported as “suppressed remarkably”.

With `N=C(N)NN` [Aminoguanidine, aminoguanidine, reference compound], the “Pentosidine formation” value in series [1] (setting [8]) stood at 2.604 nmol/mL. The PLP trapping result in series [3] is reported as “remarkable PLP trapping”.

One may read the LD50 as the dose at which mortality reaches 50%. High values mean lower toxicity, low ones greater toxicity.
